Measurements: patent US20160106104A1, “SILICONE-BASED ANTIMICROBIAL COMPOSITION” (UNIVERSITE DU MAINE, priority 2013, published 2016)

Columns and labels:
Type in all cases: cell-based
[1] = test system: Enterobacter cloacae DSM 30054; assay: Antibacterial activity of silicone films, ISO 22196; settings: incubation 24 h at 37° C., detection limit log10(N)=1.4
Protocol: (§1) The antibacterial activity of the silicone compositions of the invention was tested on 6 lines of bacteria, according to the procedure for the ISO 22196 standard (second edition, 2011).
(§2) The lines of tested bacteria are: Klebsiella pneumoniae DSM 16609, Staphylococcus aureus ATCC 25923, Enterococcus faecalis ATCC 29212, Escherichia coli ATCC 8739, Acinetobacter baumannii CIP 70.34 and Enterobacter cloacae DSM 30054.
(§3) Silicone films were prepared according to Examples 2 and 3, comprising 0%, 2% or 5% of antimicrobial agent PHMG-DBS, OMIM-BF4 or DMIM-BF4 (7 types of silicone films were therefore prepared).
(§4) Square pieces of silicone films with dimensions 25 mm×25 mm were cut out, as well as squares of polypropylene of dimension 20 mm×20 mm. The latter were passed in the autoclave at 115° C. for 20 minutes.
(§5) The bacteria were cultivated overnight at 37° C. in an agar culture medium. Suspensions of bacteria were then prepared in a nutrient broth culture medium with a bacterial concentration of 6.10^5 CFU/ml.
(§6) Each silicone square (not sterilized) was placed on a lid of a Petri dish with a diameter of 55 mm, which itself was placed in a Petri dish with a diameter of 94 mm. 100 μl of bacterial suspension were deposited on each silicone square and spread out by means of a polypropylene square. 10 ml of sterile water were added in the bottom of the Petri dish with a diameter of 94 mm in order to ensure high relative humidity during incubation at 37° C. for 24 hours. For each silicone film type, three specimens were made.
(§7) After incubation, each silicone film was placed in a new Petri dish and washed with 10 ml of […] (SCDLP, according to the standard procedure of the ISO standard) for recovering the bacteria. After 5 washes, the SCDLP suspension was diluted down to 10^−6, and 1 ml of obtained solution was placed on a gelose plate PCA (duplicated). Each plate was incubated at 37° C. for 24 hours. The number of colonies on each Petri dish was then counted.
(§8) The viability of the bacteria depending on the obtained results was calculated by means of the following formula: […]
(§9) wherein: • N refers to the number of viable bacteria observed per cm^2 of each tested sample, • C refers to the average count of colonies on each gelose plate PCA, and • D refers to the dilution factor used for the counting.
(§10) The results of the viability measurements of the bacteria, expressed in log10(N), are gathered in Table 1, the detection limit having been set to a number of recovered bacteria equal to 10 (i.e. log10(N)=1.4).

[2] = test system: Staphylococcus aureus ATCC 25923; assay: as above; settings: incubation 24 h at 37° C., detection limit log10(N)=1.4
Protocol: as §1, §2, §3, §4, §5, §6, §7, §8, §9, §10

[3] = test system: Klebsiella pneumoniae DSM 16609; assay: as above; settings: incubation 24 h at 37° C., detection limit log10(N)=1.4
Protocol: as §1, §2, §3, §4, §5, §6, §7, §8, §9, §10

[4] = test system: Acinetobacter baumannii CIP 70.34; assay: as above; settings: incubation 24 h at 37° C., detection limit log10(N)=1.4
Protocol: as §1, §2, §3, §4, §5, §6, §7, §8, §9, §10

[5] = test system: Escherichia coli ATCC 8739; assay: as above; settings: incubation 24 h at 37° C., detection limit log10(N)=1.4
Protocol: as §1, §2, §3, §4, §5, §6, §7, §8, §9, §10

[6] = test system: Enterococcus faecalis ATCC 29212; assay: as above; settings: incubation 24 h at 37° C., detection limit log10(N)=1.4
Protocol: as §1, §2, §3, §4, §5, §6, §7, §8, §9, §10

[7] = test system: Candida albicans IHEM 14796; assay: Tests on yeast according to ISO 22196; settings: incubation 24 h
Protocol: The antibacterial activity of the silicone compositions of the invention was tested on the yeast line Candida albicans IHEM 14796, according to the procedure of the ISO 22196 standard (second edition, 2011).
(§11) The silicone films prepared in Example 5A were used.
The procedure followed is identical with that of Example 5A.

[8] = test system: Penicillium chrysogenum HEM 20859; assay: Tests on a fungus according to ISO 16869 (modified); design: key: mark 0 is ascribed when no growth is observed; mark 1 is ascribed when beginning of growth is observed; mark 2 is ascribed when obvious growth is observed; settings: silicone film with 5% antimicrobial agent, 25° C., naked eye mark
Protocol: The antifungal activity of the silicone compositions of the invention was tested on the fungus line Penicillium chrysogenum HEM 20859, according to the procedure of the ISO 16869 standard (second edition, 2008).
as §11
Thus, each silicone film sample was placed in a Petri dish between a lower layer of nutrient salt agar (20 ml) and an upper layer of Peptone Dextrose agar in which fungus spores were dispersed. The remainder of the procedure of the aforementioned standard was followed.
The culture media were incubated at 25° C. for at least 48 h, and for up to 7 days.
The results are evaluated with the naked eye: • mark 0 is ascribed when no growth is observed, • mark 1 is ascribed when beginning of growth is observed, and • mark 2 is ascribed when obvious growth is observed.

[9] = silicone film with 2% antimicrobial agent
[10] = silicone film with 5% antimicrobial agent

Row | Compound | Viability of bacteria (log10(N)) Enterobacter cloacae [1, 9] | Viability of bacteria (log10(N)) Enterobacter cloacae [1, 10] | Viability of bacteria (log10(N)) Staphylococcus aureus [2, 9] | Viability of bacteria (log10(N)) Staphylococcus aureus [2, 10] | Viability of bacteria (log10(N)) Klebsiella pneumoniae [3, 9] | Viability of bacteria (log10(N)) Klebsiella pneumoniae [3, 10] | Viability of bacteria (log10(N)) Acinetobacter baumannii [4, 9] | Viability of bacteria (log10(N)) Acinetobacter baumannii [4, 10] | Viability of bacteria (log10(N)) Escherichia coli [5, 9] | Viability of bacteria (log10(N)) Escherichia coli [5, 10] | Viability of bacteria (log10(N)) Enterococcus faecalis [6, 9] | Viability of bacteria (log10(N)) Enterococcus faecalis [6, 10] | Viability of yeasts (log10(N)) Candida albicans [7, 9] | Viability of yeasts (log10(N)) Candida albicans [7, 10] | Observation of the growth of fungi Penicillium chrysogenum, Incubation for 48 h ([8]; 48 h) | Observation of the growth of fungi Penicillium chrysogenum, Incubation for 7 days ([8]; 7 days)
1 | CCCCCCCCCCCCn1cc[n+](C)c1.F[B-](F)(F)F [DMIM-BF4, 1-dodecyl-3-methylimidazolium tetrafluoroborate] | 1.4 log10(N) | 1.4 log10(N) | 1.4 log10(N) | 1.4 log10(N) | 1.4 log10(N) | 1.4 log10(N) | 1.6 log10(N) | 1.4 log10(N) | 1.4 log10(N) | 1.4 log10(N) | 1.4 log10(N) | 1.4 log10(N) | 1.4 log10(N) | 1.4 log10(N) | 0 | 0
2 | CCCCCCCCn1cc[n+](C)c1.F[B-](F)(F)F [OMIM-BF4, 1-octyl-3-methylimidazolium tetrafluoroborate] | 3.6 log10(N) | 1.4 log10(N) | 1.6 log10(N) | 1.4 log10(N) | 3.3 log10(N) | 4.6 log10(N) | 5.8 log10(N) | 1.4 log10(N) | 1.4 log10(N) | 1.4 log10(N) | 3.6 log10(N) | 1.4 log10(N) | 6.1 log10(N) | 3.0 log10(N) |  | 
